Test results from patent publication US20190015423A1, “REGULATION OF GENE EXPRESSION BY MODULATING PRIMARY CILIA LENGTH” (THE TRUSTEES OF COLUMBIA UNIVERSITY IN THE CITY OF NEW YORK, priority 2016, published 2019).
“Also recorded” adds a separate entry of the source.

What was measured:
C57Bl/6 mice = assay: Load-induced bone formation: compressive ulnar loading and dynamic histomorphometry; assay type: in vivo
From the text: All data are shown in reference to the non-loaded contralateral limb as control. […] On day 4-6 the mice were subjected to daily axial compressive ulnar loading. Mice were placed under isoflurane anesthesia and forelimbs were placed between two loading cups controlled by an electromagnetic loading system with feedback control (Bose, ELF 3220). An initial 0.1 N preload was applied, followed by 3 N of cyclic compression applied with a 2 Hz sine wave for 120 cycles, generating a strain gage verified average peak deformation of 1895 μstrain. On day 8, mice were subcutaneously injected with calcein (10 mg/kg) and alizarin red (70 mg/kg) on day 12. Mice were euthanized on day 18 and prepared for dynamic histomorphometric analysis.
Compressive ulnar loading was applied on days 5-7 to mechanically stimulate bone (3N at 2 Hz for 120 cycles) [9].
On the final three days of drug or control injection, animals were also subjected to compressive ulnar load at a peak load of 3 N using a 2 Hz sine wave for 120 cycles, as previously described (Temiyasathit, S. et al. PLoS One 7, (2012); Lee, K. L. et al. FASEB J. 28, 1157-1165 (2014)). Contralateral limbs served as a non-loaded control. 2 days following load, mice were treated with 10 mg/kg calcein (Sigma), and 4 days later 70 mg/kg alizarin (Sigma), with mice being sacrificed 6 days later.
Dynamic histomorphometry was performed as previously described, measuring the amount and separation of calcein and alizarin labels to quantify mineralizing surface (rMS/BS), mineral apposition rate (rMAR), and bone formation rate (rBFR/BS) relative to non-loaded controls (Temiyasathit, S. et al. PLoS One 7, (2012); Lee, K. L. et al. FASEB J. 28, 1157-1165 (2014)). Left and right ulnae were dissected and preserved in ethanol. Samples were then infiltrated with methyl methacrylate, and embedded in methyl methacrylate and benzoyl peroxide. Transverse sections of the ulnar midshaft were imaged on a laser scanning confocal microscope (Olympus Fluoview FV1000). Measurements of outer bone perimeter (OP), single label perimeter (SL), double label perimeter (DL), and double label area (DA) were made in ImageJ. The mineralizing surface relative to outer bone surface (MS/BS), mineral apposition rate (MAR), and bone formation rate (BFS/BS) were calculated as:
Relative measurements—rMS/BS, rMAR, rBFR/BS—were determined by subtracting non-loaded from loaded ulnae to display differences due to mechanical load.

MC3T3 osteoblasts = assay: Flow-induced paracrine signaling: conditioned media of treated osteocytes on osteoblasts (OPN mRNA); assay type: cell-based; settings: osteocytes treated with tubastatin 5 μM 3-4 hours; 12 hrs flow; osteoblasts cultured 24 hours
MLO-Y4 osteocytes [1] = assay: Primary cilia length and incidence by immunocytochemistry (acetylated α-tubulin); assay type: cell-based
Method: MLO-Y4 osteocytes were cultured on collagen-coated dishes in MEMα (Life Tech) supplemented with 5% fetal bovine serum, 5% calf serum, and 1% penicillin/streptomycin at 37° C. and 5% CO2. […] These agents, or their vehicle control, were applied to cells for 16 h prior to experimentation. MTT, (methylthiazolyldiphenyl-tetrazolium bromide) assay (Sigma) was performed according to manufacturer's protocol to assess cell viability during drug treatments. Phase contrast microscopy with an Olympus CKX41 inverted microscope and 40× objective was used to assess cell morphology.
For primary cilia imaging and analysis, cells cultured on collagen I-coated glass were fixed in 10% formalin and treated with anti-acetylated α-tubulin primary antibody, 1:1, from a C3B9 hybridoma cell line (Sigma). Cilia were visualised with Alexa-Fluor 488 secondary antibody, 1:1000 (Life Technologies) and imaged with a 100× oil objective on an Olympus Fluoview FV1000 confocal microscope. Nuclei were stained with DAPI (Life Technologies). Cilia length was analyzed using Image J software.
Gene silencing was performed by siRNA mediated knockdown and compared to scramble siRNA control (Life Technologies). […]

MLO-Y4 osteocytes [2] = assay: Oscillatory fluid flow-induced mRNA expression (COX-2, OPN, AC6), flow vs no flow; assay type: cell-based
MLO-Y4 osteocytes [3] = assay: High-throughput drug screening of primary cilia length and incidence; assay type: cell-based; settings: 10 μM, 16 hours, triplicate; normalized to vehicle control; standard deviation away from the population average
In short: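 MLO-Y4 osteocytes on collagen I, treated 16 h with 10 μM compound in triplicate, fixed, stained for acetylated α-tubulin and Hoechst, imaged at 40× (4 fields/well); cilia length and incidence normalized to plate DMSO controls. Hits ranked by SD from population mean, requiring ≥40% viability by nuclei count.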

[4] = AC6 siRNA, mechanically stimulated cells

Question: Which “relative bone formation rate (rBFR)” value (C57Bl/6 mice; tubastatin 5 mg/kg s.c. 6 consecutive days, load day 4-6, n=3, preliminary study) does the source give for CN1CCc2c(c3ccccc3n2Cc2ccc(C(=O)NO)cc2)C1 [tubastatin, tubastatin A] here?
Answer: did not elicit a marked change

Question: And the “relative bone formation rate (rBFR)” value (C57Bl/6 mice; tubastatin 5 mg/kg s.c. 6 consecutive days, load day 4-6, n=3, preliminary study, listed as Tubastatin)?
Answer: slightly decreased

Question: What about the “decrease in active mineralizing surface (rMS/BS)” value (C57Bl/6 mice; tubastatin 5 mg/kg s.c. 6 consecutive days, data not shown) of the same molecule?
Answer: over 50%

Question: What about the “osteoblast osteogenic gene (osteopontin, OPN) expression after conditioned media from flow-stimulated osteocytes” value (MC3T3 osteoblasts) of the same molecule?
Answer: decreased; also recorded: impaired

Question: For “AC6 siRNA: siRNA 5′-CCTGCCACCTACAACAGCTCAATTA-3′ (SEQ ID NO:2) (listed as DNA, chemistry not given here)”, which cilia incidence (MLO-Y4 osteocytes [1]; AC6 siRNA) is on record?
Answer: no effect; also recorded: Neither AC6 siRNA nor fenoldopam alter cilia incidence

Question: What about the “decrease in cilia length” value (MLO-Y4 osteocytes [1]; AC6 siRNA) of the same molecule?
Answer: 10%±3%

Question: And the “decrease of AC6 expression” value (MLO-Y4 osteocytes [2]; [4])?
Answer: 50%±3%

Question: What about the “decrease of flow-induced OPN expression” value (MLO-Y4 osteocytes [2]; [4]) of the same molecule?
Answer: 30%±3%

Question: With CCCCCCCCCC(=O)O[C@@H]1[C@@H](C)[C@@]2(O)[C@@H](C=C(CO)C[C@@]3(O)C(=O)C(C)=C[C@@H]23)[C@@H]2C(C)(C)[C@]12OC(=O)CCCCCCCCC [4αPDD] as the molecule, how does the “relative bone formation rate (rBFR/BS) compared to vehicle control” value (C57Bl/6 mice; 4αPDD 250 μg/kg s.c. 6 consecutive days, load day 4-6, n=3, preliminary study) read?
Answer: did not promote a significant increase

Question: What does the source list for “IFT88 siRNA: siRNA 5′-CCAGAAACAGATGAGGACGACCTTT-3′ (SEQ ID NO:1) (listed as DNA, chemistry not given here)”?
Answer: primary cilia incidence compared to scramble control (MLO-Y4 osteocytes [1]; 20 μM IFT88 siRNA, 48 hours): lower incidence; also recorded: decreases; primary cilia length compared to scramble control (MLO-Y4 osteocytes [1]; 20 μM IFT88 siRNA, 48 hours): significantly shorter; also recorded: decreased; decrease of flow-induced OPN mRNA expression compared to scramble control (MLO-Y4 osteocytes [2]; IFT88 siRNA, flow 1 h): 43%±2%

Question: With O=C(CCCCCCC(=O)Nc1ccccc1)NO [Vorinostat] as the molecule, how does the “Average Length SD Away” value (MLO-Y4 osteocytes [3]) read?
Answer: 3.283 SD

Question: C=C[C@H]1C[N@@]2CC[C@H]1C[C@@H]2[C@@H](O)c1ccnc2ccc(OC)cc12 [QUINIDINE GLUCONATE] was tested. Which “Average Length SD Away” value (MLO-Y4 osteocytes [3]) did it give?
Answer: 1.825 SD

Question: How did the “Average Length SD Away” value (MLO-Y4 osteocytes [3]) turn out when COc1cc2c(cc1OC)[C@@H]1C(=O)c3ccc4c(c3O[C@@H]1CO2)C=CC(C)(C)O4 [DEGUELIN(−)] was run?
Answer: 2.48 SD

Question: CCCCC(=O)N(Cc1ccc(-c2ccccc2-c2nnn[nH]2)cc1)[C@H](C(=O)O)C(C)C [Valsartan (Diovan), Valsartan] was tested. Which “Average Incidence SD Away” value (MLO-Y4 osteocytes [3]) did it give?
Answer: 1.648 SD

Question: With COc1ccccc1OCC(O)CN1CCN(CC(=O)Nc2c(C)cccc2C)CC1 (stereo not shown) [Ranolazine (Ranexa), Ranolazine] as the molecule, how does the “Average Incidence SD Away” value (MLO-Y4 osteocytes [3]) read?
Answer: 1.565 SD

Question: COc1cc(OC)c(C=C2C(O)=Nc3ccccc32)c(OC)c1 [IC 261] was tested. Which “Average Length SD Away” value (MLO-Y4 osteocytes [3]) did it give?
Answer: 1.651 SD

Question: With O=c1[nH]cc(F)c(=O)[nH]1 [5-fluorouracil] as the molecule, how does the “Average Length SD Away” value (MLO-Y4 osteocytes [3]) read?
Answer: 1.775 SD
